Measured values reported in ChEMBL document CHEMBL1124880 (J Med Chem, 1990).

What was measured:
Rattus norvegicus = species: Rattus norvegicus; assay: Minimal effective dose in an rat anti-immobility effect using behavioral despair test; type: functional; conditions: read-out: MED
Adenosine receptor A1 = molecular target: T1, Adenosine receptor A1 (Rattus norvegicus, UniProt P25099); assay: Binding affinity towards the adenosine A1 receptor in cerebral cortices of Sprague-Dawley male rats using [3H]CHA as radioligand.
T1 sequence (P25099 whole entry): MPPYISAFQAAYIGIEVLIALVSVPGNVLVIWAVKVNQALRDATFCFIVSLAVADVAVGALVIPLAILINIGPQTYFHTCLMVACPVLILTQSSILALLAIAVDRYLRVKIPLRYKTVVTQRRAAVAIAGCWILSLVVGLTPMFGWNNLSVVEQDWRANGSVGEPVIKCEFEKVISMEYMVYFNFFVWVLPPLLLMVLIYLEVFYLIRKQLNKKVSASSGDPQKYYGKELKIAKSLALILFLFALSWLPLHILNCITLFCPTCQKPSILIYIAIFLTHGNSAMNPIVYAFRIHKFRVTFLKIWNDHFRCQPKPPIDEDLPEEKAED

Adenosine A2 receptor = Adenosine A2 receptor (Rattus norvegicus, UniProt P29276+P30543)

COc1ccc2c(c1)nc(NC(C)=O)c1nncn12
minimal effective dose (Rattus norvegicus): ≤ 32 mg/kg

COc1nnc2c(NC(C)C)nc3ccc(Cl)cc3n12
minimal effective dose (Rattus norvegicus): ≤ 32 mg/kg

CCc1nnc2c(NC(C)=O)nc3cc(Cl)ccc3n12
minimal effective dose (Rattus norvegicus): 3.2 mg/kg

Oc1cccc(C2=CSC3=Nc4ccccc4CN23)c1
IC50 (Adenosine receptor A1): 18 µM | IC50 (Adenosine A2 receptor): 0.53 µM

CCc1nnc2c(NC(C)C)nc3cc(F)ccc3n12
IC50 (Adenosine receptor A1): 0.44 µM | IC50 (Adenosine A2 receptor): 48 µM | minimal effective dose (Rattus norvegicus): ≥ 32 mg/kg

CCc1nnc2c(NC(C)=O)nc3cc(OC)ccc3n12
minimal effective dose (Rattus norvegicus): > 32 mg/kg

CCN(CC)c1nc2ccc(OC)cc2n2cnnc12
minimal effective dose (Rattus norvegicus): > 32 mg/kg

CCc1nnc2c(N(C(C)=O)C(C)=O)nc3ccccc3n12
IC50 (Adenosine receptor A1): 9.3 µM | minimal effective dose (Rattus norvegicus): 3.2 mg/kg

Cc1nnc2c(N)nc3ccc(Cl)cc3n12
IC50 (Adenosine receptor A1): 0.35 µM | minimal effective dose (Rattus norvegicus): ≤ 32 mg/kg

CCNc1nc2ccc(Cl)cc2n2c(CC)nnc12
minimal effective dose (Rattus norvegicus): 3.2 mg/kg

CCNc1nc2ccccc2n2c(C(C)C)nnc12
IC50 (Adenosine receptor A1): 2.2 µM | minimal effective dose (Rattus norvegicus): ≤ 32 mg/kg

Cc1nnc2c(N3CCCC3)nc3ccccc3n12
IC50 (Adenosine receptor A1): 49 µM | minimal effective dose (Rattus norvegicus): > 32 mg/kg

CCN(CC)c1nc2ccccc2n2c(C(C)C)nnc12
IC50 (Adenosine receptor A1): 19 µM | minimal effective dose (Rattus norvegicus): ≤ 32 mg/kg

c1ccc2c(c1)nc(N1CCCC1)c1nncn12
IC50 (Adenosine receptor A1): 50 µM | minimal effective dose (Rattus norvegicus): > 32 mg/kg

CCc1nnc2c(N3CCNCC3)nc3cc(Cl)c(Cl)cc3n12
minimal effective dose (Rattus norvegicus): ≤ 32 mg/kg

CC(=O)N(c1nc2cc(Cl)c(Cl)cc2n2cnnc12)C(C)C
minimal effective dose (Rattus norvegicus): > 32 mg/kg

CCN(CC)c1nc2ccc(Cl)cc2n2c(C)nnc12
IC50 (Adenosine receptor A1): 17 µM | minimal effective dose (Rattus norvegicus): ≤ 32 mg/kg

CN(C)c1nc2ccccc2n2cnnc12
IC50 (Adenosine receptor A1): 59 µM | minimal effective dose (Rattus norvegicus): ≤ 32 mg/kg

CCc1nnc2c(N(CC)CC)nc3ccc(F)cc3n12
minimal effective dose (Rattus norvegicus): 10 mg/kg

CCc1nnc2c(NC(C)=O)nc3cc(F)ccc3n12
minimal effective dose (Rattus norvegicus): ≤ 3.2 mg/kg

CCc1nnc2c(N(C(C)=O)C(C)C)nc3ccc(Cl)cc3n12
minimal effective dose (Rattus norvegicus): 10 mg/kg

Cc1nnc2c(NC(C)C)nc3ccc(Cl)cc3n12
IC50 (Adenosine receptor A1): 0.1 µM | minimal effective dose (Rattus norvegicus): 3.2 mg/kg

CC(=O)Nc1nc2cc(F)ccc2n2cnnc12
minimal effective dose (Rattus norvegicus): ≤ 32 mg/kg

CCc1nnc2c(NC)nc3ccccc3n12
IC50 (Adenosine receptor A1): 6 µM | minimal effective dose (Rattus norvegicus): 3.2 mg/kg

CCN(CC)c1nc2cc(F)c(F)cc2n2cnnc12
IC50 (Adenosine receptor A1): 5 µM | minimal effective dose (Rattus norvegicus): 3.2 mg/kg

CC(C)Nc1nc2cc(Cl)c(Cl)cc2n2cnnc12
IC50 (Adenosine receptor A1): 1 µM | minimal effective dose (Rattus norvegicus): 3.2 mg/kg

CCN(CC)c1nc2ccccc2n2c(C)nnc12
IC50 (Adenosine receptor A1): > 10 µM | minimal effective dose (Rattus norvegicus): 3.2 mg/kg

CCc1nnc2c(N3CCCC3)nc3ccccc3n12
IC50 (Adenosine receptor A1): 10 µM | minimal effective dose (Rattus norvegicus): > 3.2 mg/kg

CC(=O)Nc1nc2ccccc2n2cnnc12
minimal effective dose (Rattus norvegicus): ≤ 32 mg/kg

CN(C)c1nc2ccc(F)cc2n2cnnc12
minimal effective dose (Rattus norvegicus): ≤ 32 mg/kg

CCC(=O)Nc1nc2ccc(Cl)cc2n2c(CC)nnc12
minimal effective dose (Rattus norvegicus): ≤ 3.2 mg/kg

Cc1nnc2c(NC(C)C)nc3ccccc3n12
IC50 (Adenosine receptor A1): 0.85 µM | minimal effective dose (Rattus norvegicus): 10 mg/kg

CCN(CC)c1nc2ccc(Cl)cc2n2c(-c3ccccc3)nnc12
minimal effective dose (Rattus norvegicus): > 32 mg/kg

CCc1nnc2c(N(CC)CC)nc3cc(F)c(F)cc3n12
minimal effective dose (Rattus norvegicus): 3.2 mg/kg

Nc1nc2cc(Cl)c(Cl)cc2n2cnnc12
minimal effective dose (Rattus norvegicus): > 32 mg/kg

CCN(CC)c1nc2cc(Br)c(Br)cc2n2cnnc12
minimal effective dose (Rattus norvegicus): > 32 mg/kg

CCNc1nc2cc(F)ccc2n2c(CC)nnc12
minimal effective dose (Rattus norvegicus): ≤ 32 mg/kg

CCc1nnc2c(NCCO)nc3ccccc3n12
IC50 (Adenosine receptor A1): 1.6 µM | minimal effective dose (Rattus norvegicus): ≤ 32 mg/kg

CCc1nnc2c(N3CCCC3=O)nc3ccccc3n12
minimal effective dose (Rattus norvegicus): > 32 mg/kg

CCc1nnc2c(NC(C)=O)nc3ccc(F)cc3n12
minimal effective dose (Rattus norvegicus): ≤ 3.2 mg/kg

CCN(CC)c1nc2ccc(F)cc2n2cnnc12
IC50 (Adenosine receptor A1): > 10 µM | minimal effective dose (Rattus norvegicus): 3.2 mg/kg

CCc1nnc2c(N(CC)C(C)=O)nc3ccccc3n12
minimal effective dose (Rattus norvegicus): ≤ 32 mg/kg

CC(N)Cc1ccccc1.O=S(=O)(O)O (centres undefined) [AMPHETAMINE SULFATE]
minimal effective dose (Rattus norvegicus): < 1 mg/kg

CCc1nnc2c(N(C)C)nc3cc(Cl)c(Cl)cc3n12
minimal effective dose (Rattus norvegicus): 3.2 mg/kg

CCc1nnc2c(N(CC)CC)nc3cc(Cl)c(Cl)cc3n12
IC50 (Adenosine receptor A1): 100 µM | minimal effective dose (Rattus norvegicus): 3.2 mg/kg

CCNc1nc2cc(F)c(F)cc2n2cnnc12
IC50 (Adenosine receptor A1): 4.7 µM | minimal effective dose (Rattus norvegicus): 3.2 mg/kg

CCc1nnc2c(NC(=O)C(C)(C)C)nc3ccc(Cl)cc3n12
minimal effective dose (Rattus norvegicus): ≤ 32 mg/kg

Nc1nc2ccc(Cl)cc2c2nc(-c3ccco3)nn12 [CGS-15943]
IC50 (Adenosine A2 receptor): 0.0028 µM | minimal effective dose (Rattus norvegicus): < 32 mg/kg

CCc1nnc2c(N(C)C)nc3cc(Cl)ccc3n12
minimal effective dose (Rattus norvegicus): 10 mg/kg

CCCC(=O)Nc1nc2ccc(Cl)cc2n2c(CC)nnc12
minimal effective dose (Rattus norvegicus): ≤ 32 mg/kg

CCN(CC)c1nc2ccc(F)cc2n2c(C(F)(F)F)nnc12
minimal effective dose (Rattus norvegicus): > 32 mg/kg

Clc1ccc2nc(N3CCNCC3)c3nncn3c2c1
minimal effective dose (Rattus norvegicus): > 32 mg/kg

O=C1CCCN1c1nc2ccccc2n2cnnc12
IC50 (Adenosine receptor A1): > 100 µM | minimal effective dose (Rattus norvegicus): > 32 mg/kg

CC(=O)Nc1nc2ccc(Cl)cc2n2c(C(F)(F)F)nnc12
IC50 (Adenosine receptor A1): 0.63 µM | minimal effective dose (Rattus norvegicus): ≤ 3.2 mg/kg

CCNc1nc2ccc(F)cc2n2c(CC)nnc12
IC50 (Adenosine receptor A1): 0.7 µM | minimal effective dose (Rattus norvegicus): 3.2 mg/kg

CCc1nnc2c(NC(C)=O)nc3ccccc3n12
minimal effective dose (Rattus norvegicus): 1 mg/kg

CC(=O)N(C(C)=O)c1nc2ccc(Cl)cc2n2cnnc12
minimal effective dose (Rattus norvegicus): ≤ 32 mg/kg

CC(=O)Nc1nc2ccc(F)cc2n2c(C(F)(F)F)nnc12
IC50 (Adenosine receptor A1): 3.6 µM | minimal effective dose (Rattus norvegicus): ≤ 3.2 mg/kg

CC(=O)Nc1nc2ccc(Cl)cc2n2c(C)nnc12
minimal effective dose (Rattus norvegicus): 3.2 mg/kg

CCNc1nc2ccc(Cl)cc2n2c(-c3ccccc3)nnc12
minimal effective dose (Rattus norvegicus): > 32 mg/kg

c1ccc2c(c1)nc(N1CCCCC1)c1nncn12
IC50 (Adenosine receptor A1): 100 µM | minimal effective dose (Rattus norvegicus): > 32 mg/kg

CC(=O)N(C(C)=O)c1nc2ccccc2n2cnnc12
minimal effective dose (Rattus norvegicus): ≤ 32 mg/kg

CCN(CC)c1nc2ccccc2n2c(C(F)(F)F)nnc12
minimal effective dose (Rattus norvegicus): ≤ 32 mg/kg

c1ccc2c(c1)nc(N1CCOCC1)c1nncn12
minimal effective dose (Rattus norvegicus): > 32 mg/kg

CC(CO)Nc1nc2ccc(F)cc2n2cnnc12 (centres undefined)
minimal effective dose (Rattus norvegicus): > 32 mg/kg

CCNc1nc2ccccc2n2c(C(F)(F)F)nnc12
minimal effective dose (Rattus norvegicus): 32 mg/kg

CCc1nnc2c(N3CCOCC3)nc3ccccc3n12
IC50 (Adenosine receptor A1): 28 µM | minimal effective dose (Rattus norvegicus): > 10 mg/kg

CC(C)Nc1nc2cc(F)c(F)cc2n2cnnc12
IC50 (Adenosine receptor A1): 1.9 µM | minimal effective dose (Rattus norvegicus): ≤ 3.2 mg/kg

COc1ccc2c(c1)nc(NC(C)C)c1nncn12
minimal effective dose (Rattus norvegicus): > 32 mg/kg

CCc1nnc2c(NC(C)=O)nc3cc(Cl)c(Cl)cc3n12
IC50 (Adenosine receptor A1): 1.3 µM | minimal effective dose (Rattus norvegicus): ≤ 3.2 mg/kg

CCc1nnc2c(NC(C)=O)nc3ccc(Cl)cc3n12
IC50 (Adenosine receptor A1): 1.8 µM | minimal effective dose (Rattus norvegicus): 1 mg/kg

CCN(CC)c1nc2ccccc2n2c(-c3ccccc3)nnc12
minimal effective dose (Rattus norvegicus): 1 mg/kg

CN1CCN(c2nc3ccccc3n3cnnc23)CC1
IC50 (Adenosine receptor A1): > 100 µM | minimal effective dose (Rattus norvegicus): > 32 mg/kg

CCCN(CCC)c1nc2ccccc2n2cnnc12
IC50 (Adenosine receptor A1): ≥ 100 µM | minimal effective dose (Rattus norvegicus): > 32 mg/kg

CCCc1nnc2c(N(CC)CC)nc3ccccc3n12
minimal effective dose (Rattus norvegicus): ≤ 32 mg/kg

CC(C)(C)Nc1nc2ccccc2n2cnnc12
IC50 (Adenosine receptor A1): 19 µM | minimal effective dose (Rattus norvegicus): > 32 mg/kg

CCc1nnc2c(N(CC)CC)nc3cc(Cl)ccc3n12
minimal effective dose (Rattus norvegicus): 10 mg/kg

CCN(CC)c1nc2cc(Cl)ccc2n2cnnc12
minimal effective dose (Rattus norvegicus): 32 mg/kg

CN(C)CCCN1c2ccccc2CCc2ccccc21 [IMIPRAMINE]
minimal effective dose (Rattus norvegicus): > 17.8 mg/kg

CCc1nnc2c(N3CCCCC3)nc3ccccc3n12
IC50 (Adenosine receptor A1): 3.5 µM | minimal effective dose (Rattus norvegicus): 10 mg/kg

CC(=O)N(c1nc2ccc(Cl)cc2n2cnnc12)C(C)C
minimal effective dose (Rattus norvegicus): ≤ 32 mg/kg

CCc1nnc2c(N(CC)CC)nc3ccc(Cl)cc3n12
IC50 (Adenosine receptor A1): 6.5 µM | minimal effective dose (Rattus norvegicus): ≤ 32 mg/kg

CCNc1nc2ccc(Cl)cc2n2c(C(F)(F)F)nnc12
minimal effective dose (Rattus norvegicus): ≤ 32 mg/kg

CC(=O)Nc1nc2ccc(F)cc2n2cnnc12
minimal effective dose (Rattus norvegicus): ≤ 32 mg/kg

CNc1nc2ccccc2n2cnnc12
IC50 (Adenosine receptor A1): 100 µM | minimal effective dose (Rattus norvegicus): 32 mg/kg

CCc1nnc2c(N(CC)CC)nc3ccc(OC)cc3n12
minimal effective dose (Rattus norvegicus): ≤ 32 mg/kg
